Measurements from patent US8404683B2, “Inhibitors of the interaction between MDM2 and P53” (Janssen Pharmaceutical N.V., priority 2004, dated 2013).

Test system: U87MG cells
Assay: Proliferation assay (MTT-based) on U87MG tumour cells
Conditions: Homo sapiens, U-87 MG, 96 h, 4 days of incubation, negative log value of the IC50-value, read-out: cell proliferation pIC50 (converted)
Protocol: U87MG cells are human glioblastoma cells with wild type p53. In this cell line MDM2 tightly controls p53 expression.
Cellular activity of the compounds of formula (I) was determined on U87MG tumour cells using a colorimetric assay for cell toxicity or survival (see example C.2).
All compounds tested were dissolved in DMSO and further dilutions were made in culture medium. Final DMSO concentrations never exceeded 0.1% (v/v) in cell proliferation assays. Controls contained U87MG cells and DMSO without compound and blanks contained DMSO but no cells.
U87MG cells were seeded in 96-well cell culture plates at 3000 cells/well/100 μl. 24 hours later, medium was changed and compound and/or solvent were added to a final volume of 200 μl. Following 4 days of incubation, medium was replaced by 200 μl fresh medium and cell growth was assessed using a MTT-based assay. Therefore, 25 μl of the MTT solution (0.5% MTT research grade from Serva in phosphate-buffered saline) was added to each well and the cells were further incubated for 2 hours at 37° C. The medium was then carefully aspirated and the blue MTT-formazan product was dissolved by adding to each well 25 μl 0.1 M glycin and 100 μl DMSO. The plates were shaken for another 10 min on a micro plate shaker before reading absorbance at 540 nm by a Biorad micro plate reader.
Within an experiment, the results for each experimental condition are the mean of 3 replicate wells. For initial screening purposes, compounds were tested at a single fixed concentration of 10^−5 M. For active compounds, the experiments were repeated to establish full concentration-response curves. For each experiment, controls (containing no drug) and a blank incubation (containing no cells or drugs) were run in parallel. The blank value was subtracted from all control and sample values. For each sample, the mean value for cell growth (in absorbance units) was expressed as a percentage of the mean value for cell growth of the control. When appropriate, IC50-values (concentration of the drug, needed to reduce cell growth to 50% of the control) were computed using probit analysis for graded data (Finney, D. J., Probit Analyses, 2nd Ed. Chapter 10, Graded Responses, Cambridge University Press, Cambridge 1962). Herein the effects of test compounds are expressed as pIC50 (the negative log value of the IC50-value) (see table F-2).

Structure (SMILES) | IC50 [µM]
CCOc1cc(Nc2ccncc2)ccc1NCCc1c[nH]c2ccccc12 [Compound 2] | 0.0631
Cn1cc(CCN(c2ccncc2)c2ccc(Nc3ccncc3)cc2)c2ccccc21 [Compound 10] | 1.26
COC(=O)c1ccc2nc(C)cc(Nc3ccc(NCCc4c[nH]c5ccccc45)cc3)c2c1 [Compound 15] | 0.0501
c1ccc(COc2cc(Nc3ccnc4ccccc34)ccc2NCCc2c[nH]c3ccccc23)cc1 [Compound 17] | 0.631
NC(=O)C(Cc1c[nH]c2ccccc12)Nc1ccc(Nc2ccnc3ccccc23)cc1 (stereo not shown) [Compound 18] | 0.501
Cn1cc(CCNc2ccc(Nc3ccnc4ccccc34)cc2)c2ccccc21 [Compound 28] | 0.2
c1ccc2c(c1)NCC2CCNc1ccc(Nc2ccnc3ccccc23)cc1 (stereo not shown) [Compound 34] | 0.0501
CCOc1cc(Nc2ccnc3ccccc23)ccc1NCCc1c[nH]c2ccccc12 [Compound 35] | 0.0398
Clc1cc(Nc2ccncc2)ccc1NCCc1c[nH]c2ccccc12 [Compound 45] | 1
Cc1cc(Nc2ccncc2)ccc1NCCc1c[nH]c2ccccc12 [Compound 47] | 0.158
OCC(Cc1c[nH]c2ccccc12)Nc1ccc(Nc2ccncc2)cc1 (stereo not shown) [Compound 48] | 0.158
O=C(c1cc(Nc2ccc(NCCc3c[nH]c4ccccc34)cc2)ccn1)N1CCCC1 [Compound 49] | > 10
Clc1ccc2c(CCNc3ccc(Nc4ccncc4)cc3)c[nH]c2c1 [Compound 50] | 0.1
OCCc1cc(Nc2ccc(NCCc3c[nH]c4ccccc34)cc2)ccn1 [Compound 51] | 0.316
O=C(NCCO)c1cc(Nc2ccc(NCCc3c[nH]c4ccccc34)cc2)ccn1 [Compound 52] | 0.501
c1ccc2c(CCNc3ccc(Nc4ccnc(CN5CCCC5)c4)cc3)c[nH]c2c1 [Compound 53] | 0.631
COc1ccc2c(CCNc3ccc(Nc4ccncc4)cc3)c[nH]c2c1 [Compound 54] | 0.126
O=C(c1ccccc1)c1cc(Nc2ccc(NCCc3c[nH]c4ccccc34)cc2)ccn1 [Compound 56] | 2.51
OC(c1ccccc1)c1cc(Nc2ccc(NCCc3c[nH]c4ccccc34)cc2)ccn1 (stereo not shown) [Compound 57] | 0.794

Structure (SMILES) | IC50 [µM]
O=C(O)c1cc(Nc2ccc(NCCc3c[nH]c4ccccc34)cc2)ccn1 [Compound 58] | > 10
CN(C)CCNCc1cc(Nc2ccc(NCCc3c[nH]c4ccccc34)cc2)ccn1 [Compound 59] | 0.398
c1ccc(COc2cc(Nc3ccncc3)ccc2NCCc2c[nH]c3ccccc23)cc1 [Compound 61] | 0.316
COc1ccc2[nH]cc(CCNc3ccc(Nc4ccncc4)cc3)c2c1 [Compound 62] | 2.51
CNC(=O)c1cc(Nc2ccc(NCCc3c[nH]c4ccccc34)cc2)ccn1 [Compound 63] | 1.58
COCc1cc(Nc2ccc(NCCc3c[nH]c4ccccc34)cc2)ccn1 [Compound 64] | 0.398
NC(=O)C(Cc1c[nH]c2ccccc12)Nc1ccc(Nc2ccncc2)cc1 (stereo not shown) [Compound 65] | > 10
COc1cc(Nc2ccncc2)ccc1NCCc1c[nH]c2ccccc12 [Compound 66] | 0.0631
O=C(OCc1ccccc1)C(Cc1c[nH]c2ccccc12)Nc1ccc(Nc2ccncc2)cc1 (stereo not shown) [Compound 67] | 1.26
c1ccc2c(c1)NCC2CCNc1ccc(Nc2ccncc2)cc1 (stereo not shown) [Compound 68] | 2.51
CCOc1cc(Nc2ccnc(CO)c2)ccc1NCCc1c[nH]c2cc(OC)ccc12 [Compound 69] | 0.1
O=C(O)Cc1cc(Nc2ccc(NCCc3c[nH]c4ccccc34)cc2)ccn1 [Compound 70] | 0.251
c1ccc2c(CCCNc3ccc(Nc4ccncc4)cc3)c[nH]c2c1 [Compound 71] | 0.794
c1ccc2c(CCCNCc3ccc(Nc4ccncc4)cc3)c[nH]c2c1 [Compound 72] | 2
c1ccc2c(CCCN(CCCc3c[nH]c4ccccc34)Cc3ccc(Nc4ccncc4)cc3)c[nH]c2c1 [Compound 73] | 0.501
c1ccc2c(CCCCNc3ccc(Nc4ccncc4)cc3)c[nH]c2c1 [Compound 74] | 1.58
c1ccc2c(CCNCCc3ccc(Nc4ccncc4)cc3)c[nH]c2c1 [Compound 75] | 3.16
c1cncc(Nc2cccc(NCCc3c[nH]c4ccccc34)c2)c1 [Compound 76] | > 10

Continued, values first:

IC50 [µM] | Structure (SMILES)
< 0.01 | c1ccc2c(Nc3ccc(NCCc4c[nH]c5ccccc45)cc3)ccnc2c1 [Compound 1]
0.01 | c1ccc2c(CCNc3ccc(Nc4ccnc5c4CCC5)cc3)c[nH]c2c1 [Compound 4]
3.16 | c1cncc(Nc2ccc(NCCc3c[nH]c4ccccc34)cc2)c1 [Compound 6]
0.0126 | Cc1cc(Nc2ccc(NCCc3c[nH]c4ccccc34)cc2)c2ccccc2n1 [Compound 12]
0.0251 | COc1ccc2c(CCNc3ccc(Nc4ccnc5ccccc45)cc3)c[nH]c2c1 [Compound 13]
0.0398 | OCc1cc(Nc2ccc(NCCc3c[nH]c4ccccc34)cc2)c2ccccc2n1 [Compound 14]
0.0398 | COc1cc(Nc2ccnc3ccccc23)ccc1NCCc1c[nH]c2ccccc12 [Compound 16]
0.2 | Cc1cc(Nc2ccc(NCCc3c[nH]c4ccccc34)cc2)c2cc(CO)ccc2n1 [Compound 19]
0.1 | COc1ccc2nc(C)cc(Nc3ccc(NCCc4c[nH]c5ccccc45)cc3)c2c1 [Compound 20]
0.01 | COc1cccc2c(Nc3ccc(NCCc4c[nH]c5ccccc45)cc3)ccnc12 [Compound 21]
0.02 | Cc1cccc2c(Nc3ccc(NCCc4c[nH]c5ccccc45)cc3)ccnc12 [Compound 22]
0.398 | O=[N+]([O-])c1cccc2c(Nc3ccc(NCCc4c[nH]c5ccccc45)cc3)ccnc12 [Compound 23]
< 0.01 | COc1ccc2nccc(Nc3ccc(NCCc4c[nH]c5ccccc45)cc3)c2c1 [Compound 24]
0.0398 | Nc1cccc2c(Nc3ccc(NCCc4c[nH]c5ccccc45)cc3)ccnc12 [Compound 25]
0.1 | Clc1ccc2c(CCNc3ccc(Nc4ccnc5ccccc45)cc3)c[nH]c2c1 [Compound 26]
0.0794 | Oc1cccc2c(Nc3ccc(NCCc4c[nH]c5ccccc45)cc3)ccnc12 [Compound 27]
0.251 | N#Cc1ccc2nccc(Nc3ccc(NCCc4c[nH]c5ccccc45)cc3)c2c1 [Compound 29]
0.316 | CCCc1cc(Nc2ccc(NCCc3c[nH]c4ccccc34)cc2)c2ccccc2n1 [Compound 30]
1.26 | FC(F)(F)c1cccc2c(Nc3ccc(NCCc4c[nH]c5ccccc45)cc3)ccnc12 [Compound 31]
0.158 | COc1ccc2[nH]cc(CCNc3ccc(Nc4ccnc5ccccc45)cc3)c2c1 [Compound 32]
0.0631 | CCc1cc(Nc2ccc(NCCc3c[nH]c4ccccc34)cc2)c2ccccc2n1 [Compound 33]
0.2 | c1ccc2c(CCNc3ccc(Nc4ccncc4)cc3)c[nH]c2c1 [Compound 36]
0.158 | OCc1cc(Nc2ccc(NCCc3c[nH]c4ccccc34)cc2)ccn1 [Compound 37]
0.631 | c1ccc(-c2cc(Nc3ccc(NCCc4c[nH]c5ccccc45)cc3)ccn2)cc1 [Compound 39]
0.251 | Cc1cc(Nc2ccc(NCCc3c[nH]c4ccccc34)cc2)ccn1 [Compound 46]
0.501 | NCc1cc(Nc2ccc(NCCc3c[nH]c4ccccc34)cc2)ccn1 [Compound 55]
0.1 | Cc1cnccc1Nc1ccc(NCCc2c[nH]c3ccccc23)cc1 [Compound 60]
